Read-outs that look alike come from different tables or passages of the source.
Columns and labels:
Assay in all cases: Kinase selectivity, DiscoverX scanMAX Kinase assay panel (% control)
Format in all cases: binding
[1] = biological target: T1, kinases of the scanMAX Kinase assay panel (Homo sapiens, UniProt P41240); conditions: CSK; 1 uM
T1 construct: purchased DiscoverX Co. (contract measurement) scanMAX Kinase assay panel
In short: (§1)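 A 1 uM DMSO solution of compound was applied across the panel kinases, and results were expressed as % control relative to DMSO (100%) and a positive control (0%).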

[2] = biological target: T2, kinases of the scanMAX Kinase assay panel (Homo sapiens, UniProt P15056); conditions: BRAF; 1 uM
T2 construct: purchased DiscoverX Co. (contract measurement) scanMAX Kinase assay panel
T2 sequence (P15056 whole entry): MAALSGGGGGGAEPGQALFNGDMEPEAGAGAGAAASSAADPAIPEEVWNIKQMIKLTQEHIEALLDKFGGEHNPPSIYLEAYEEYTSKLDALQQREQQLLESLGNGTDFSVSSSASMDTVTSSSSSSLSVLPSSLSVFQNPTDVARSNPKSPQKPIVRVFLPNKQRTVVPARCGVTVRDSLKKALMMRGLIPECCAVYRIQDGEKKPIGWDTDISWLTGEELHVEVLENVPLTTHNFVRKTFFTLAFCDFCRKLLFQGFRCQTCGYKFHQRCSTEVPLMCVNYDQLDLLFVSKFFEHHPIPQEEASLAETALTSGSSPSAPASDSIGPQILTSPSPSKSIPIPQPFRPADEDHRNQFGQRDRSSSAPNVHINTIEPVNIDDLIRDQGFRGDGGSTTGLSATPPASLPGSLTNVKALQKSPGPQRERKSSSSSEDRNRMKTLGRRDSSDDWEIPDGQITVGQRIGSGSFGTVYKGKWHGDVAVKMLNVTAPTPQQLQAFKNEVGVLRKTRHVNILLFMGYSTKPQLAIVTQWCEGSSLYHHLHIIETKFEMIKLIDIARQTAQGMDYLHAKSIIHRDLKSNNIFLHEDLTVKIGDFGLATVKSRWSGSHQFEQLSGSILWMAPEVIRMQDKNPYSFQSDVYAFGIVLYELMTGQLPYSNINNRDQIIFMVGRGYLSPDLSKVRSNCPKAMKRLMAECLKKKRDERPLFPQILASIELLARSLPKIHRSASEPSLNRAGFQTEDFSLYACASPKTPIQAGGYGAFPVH
In short: as §1

[3] = biological target: T3, kinases of the scanMAX Kinase assay panel (Homo sapiens, UniProt Q07912); conditions: kinase TNK2; 1 uM in DMSO
T3 construct: purchased DiscoverX Co. (contract measurement) scanMAX Kinase assay panel
In short: as §1

[4] = biological target: T4, kinases of the scanMAX Kinase assay panel (Homo sapiens, UniProt P27361); conditions: ERK1; 1 uM
T4 construct: purchased DiscoverX Co. (contract measurement) scanMAX Kinase assay panel
In short: as §1

[5] = biological target: T5, kinases of the scanMAX Kinase assay panel (Homo sapiens, UniProt O14965); conditions: AURKA; 1 uM
T5 construct: purchased DiscoverX Co. (contract measurement) scanMAX Kinase assay panel
T5 sequence (O14965 1-403): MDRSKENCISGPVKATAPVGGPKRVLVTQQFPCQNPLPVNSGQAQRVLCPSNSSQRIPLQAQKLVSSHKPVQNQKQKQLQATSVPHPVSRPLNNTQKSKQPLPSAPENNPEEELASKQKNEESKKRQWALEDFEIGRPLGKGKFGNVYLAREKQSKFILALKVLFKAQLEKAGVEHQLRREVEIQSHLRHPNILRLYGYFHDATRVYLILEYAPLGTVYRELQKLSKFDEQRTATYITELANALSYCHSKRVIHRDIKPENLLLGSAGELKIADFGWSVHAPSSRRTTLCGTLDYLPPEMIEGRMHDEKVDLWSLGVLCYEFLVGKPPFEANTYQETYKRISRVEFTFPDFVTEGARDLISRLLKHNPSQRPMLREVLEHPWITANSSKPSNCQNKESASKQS
In short: as §1

[6] = biological target: T6, kinases of the scanMAX Kinase assay panel (Homo sapiens, UniProt P68400); conditions: CSNK2A1; 1 uM
T6 construct: purchased DiscoverX Co. (contract measurement) scanMAX Kinase assay panel
T6 sequence (P68400 whole entry): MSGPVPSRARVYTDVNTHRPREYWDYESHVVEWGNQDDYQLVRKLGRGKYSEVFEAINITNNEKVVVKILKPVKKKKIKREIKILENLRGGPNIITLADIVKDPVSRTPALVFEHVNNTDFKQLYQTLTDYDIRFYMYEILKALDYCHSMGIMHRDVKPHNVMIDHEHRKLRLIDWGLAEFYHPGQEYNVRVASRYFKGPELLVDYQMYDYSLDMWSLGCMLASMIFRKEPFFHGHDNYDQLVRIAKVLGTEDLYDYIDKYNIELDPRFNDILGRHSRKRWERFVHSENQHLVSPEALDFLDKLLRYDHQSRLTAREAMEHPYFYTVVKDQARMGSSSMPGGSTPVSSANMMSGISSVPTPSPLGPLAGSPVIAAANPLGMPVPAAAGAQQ
In short: as §1

[7] = biological target: T7, kinases of the scanMAX Kinase assay panel (Homo sapiens, UniProt P00519, M351T); conditions: ABL1(M351T)-phosphorylated; 1 uM
T7 construct: purchased DiscoverX Co. (contract measurement) scanMAX Kinase assay panel
In short: as §1

[8] = biological target: T8, kinases of the scanMAX Kinase assay panel (Homo sapiens, UniProt P29317); conditions: EPHA2; 1 uM
T8 construct: purchased DiscoverX Co. (contract measurement) scanMAX Kinase assay panel
T8 sequence (P29317 24-976): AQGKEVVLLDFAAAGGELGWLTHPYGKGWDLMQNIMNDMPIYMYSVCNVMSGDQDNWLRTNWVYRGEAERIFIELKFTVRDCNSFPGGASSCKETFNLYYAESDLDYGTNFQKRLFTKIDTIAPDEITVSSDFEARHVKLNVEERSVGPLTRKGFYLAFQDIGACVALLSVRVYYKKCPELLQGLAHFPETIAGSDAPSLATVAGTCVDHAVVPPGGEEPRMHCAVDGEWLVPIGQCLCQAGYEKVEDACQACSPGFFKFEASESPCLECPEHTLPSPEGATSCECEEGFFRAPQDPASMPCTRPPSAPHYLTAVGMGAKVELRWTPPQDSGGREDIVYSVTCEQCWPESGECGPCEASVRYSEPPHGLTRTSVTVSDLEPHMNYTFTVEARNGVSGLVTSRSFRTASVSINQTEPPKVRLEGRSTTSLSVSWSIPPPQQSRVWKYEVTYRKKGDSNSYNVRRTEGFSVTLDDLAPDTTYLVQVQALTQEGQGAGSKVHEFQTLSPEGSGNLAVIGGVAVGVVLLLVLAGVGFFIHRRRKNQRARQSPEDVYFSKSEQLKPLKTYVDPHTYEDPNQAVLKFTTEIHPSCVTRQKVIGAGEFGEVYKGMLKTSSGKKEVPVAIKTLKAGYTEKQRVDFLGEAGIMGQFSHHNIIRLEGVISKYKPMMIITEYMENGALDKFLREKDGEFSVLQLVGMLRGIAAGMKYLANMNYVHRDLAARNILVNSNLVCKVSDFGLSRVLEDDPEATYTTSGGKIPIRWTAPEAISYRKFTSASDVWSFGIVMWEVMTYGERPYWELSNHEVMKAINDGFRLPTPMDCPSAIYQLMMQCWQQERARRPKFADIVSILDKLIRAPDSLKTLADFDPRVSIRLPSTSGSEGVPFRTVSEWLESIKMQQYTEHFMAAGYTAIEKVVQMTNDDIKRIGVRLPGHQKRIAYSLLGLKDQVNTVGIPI
In short: as §1

[9] = biological target: T9, kinases of the scanMAX Kinase assay panel (Homo sapiens, UniProt Q9Y2U5); conditions: MAP3K2; 1 uM
T9 construct: purchased DiscoverX Co. (contract measurement) scanMAX Kinase assay panel
T9 sequence (Q9Y2U5 1-619): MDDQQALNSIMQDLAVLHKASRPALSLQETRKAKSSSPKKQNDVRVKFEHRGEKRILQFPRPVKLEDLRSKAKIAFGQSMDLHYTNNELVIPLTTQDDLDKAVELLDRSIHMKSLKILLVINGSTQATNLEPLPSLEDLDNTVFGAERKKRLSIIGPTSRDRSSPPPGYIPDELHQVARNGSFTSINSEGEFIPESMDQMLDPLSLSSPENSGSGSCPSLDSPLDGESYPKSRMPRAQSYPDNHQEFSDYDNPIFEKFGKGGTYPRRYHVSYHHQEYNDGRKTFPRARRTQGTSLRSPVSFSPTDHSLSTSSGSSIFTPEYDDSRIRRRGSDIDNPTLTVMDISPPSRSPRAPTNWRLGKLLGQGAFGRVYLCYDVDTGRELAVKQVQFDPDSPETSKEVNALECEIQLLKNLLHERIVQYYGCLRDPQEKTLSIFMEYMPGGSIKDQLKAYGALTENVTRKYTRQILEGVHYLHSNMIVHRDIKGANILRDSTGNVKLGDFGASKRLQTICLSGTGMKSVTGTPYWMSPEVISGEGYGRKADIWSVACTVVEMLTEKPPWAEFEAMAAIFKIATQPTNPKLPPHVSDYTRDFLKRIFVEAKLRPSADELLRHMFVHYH
In short: as §1

[10] = biological target: T10, kinases of the scanMAX Kinase assay panel (Homo sapiens, UniProt Q9Y4K4); conditions: MAP4K5; 1 uM
T10 construct: purchased DiscoverX Co. (contract measurement) scanMAX Kinase assay panel
In short: as §1

[11] = biological target: T11, kinases of the scanMAX Kinase assay panel (Homo sapiens, UniProt Q9UK32); conditions: 1 uM in DMSO
T11 construct: purchased DiscoverX Co. (contract measurement) scanMAX Kinase assay panel
T11 sequence (Q9UK32 whole entry): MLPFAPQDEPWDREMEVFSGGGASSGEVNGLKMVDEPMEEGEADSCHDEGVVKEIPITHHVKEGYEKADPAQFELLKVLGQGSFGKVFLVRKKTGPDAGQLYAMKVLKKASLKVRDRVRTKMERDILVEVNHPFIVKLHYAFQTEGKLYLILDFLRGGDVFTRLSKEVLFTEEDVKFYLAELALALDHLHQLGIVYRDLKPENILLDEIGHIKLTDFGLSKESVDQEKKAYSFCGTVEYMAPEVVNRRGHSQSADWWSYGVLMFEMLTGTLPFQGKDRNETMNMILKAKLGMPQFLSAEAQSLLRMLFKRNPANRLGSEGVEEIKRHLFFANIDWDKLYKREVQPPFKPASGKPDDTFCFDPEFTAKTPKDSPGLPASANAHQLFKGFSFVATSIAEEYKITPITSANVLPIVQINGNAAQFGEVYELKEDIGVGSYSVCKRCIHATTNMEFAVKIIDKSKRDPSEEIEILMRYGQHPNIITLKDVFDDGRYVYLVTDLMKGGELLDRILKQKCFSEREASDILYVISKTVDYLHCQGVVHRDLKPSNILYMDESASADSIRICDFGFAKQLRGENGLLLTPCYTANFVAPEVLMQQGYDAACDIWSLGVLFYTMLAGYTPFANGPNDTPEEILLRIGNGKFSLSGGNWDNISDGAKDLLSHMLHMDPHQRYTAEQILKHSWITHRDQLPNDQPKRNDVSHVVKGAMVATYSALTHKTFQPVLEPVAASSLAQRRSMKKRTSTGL
In short: as §1

[12] = biological target: T12, kinases of the scanMAX Kinase assay panel (Homo sapiens, UniProt Q9Y2I7); conditions: PIKFYVE; 1 uM
T12 construct: purchased DiscoverX Co. (contract measurement) scanMAX Kinase assay panel
T12 sequence (Q9Y2I7 whole entry): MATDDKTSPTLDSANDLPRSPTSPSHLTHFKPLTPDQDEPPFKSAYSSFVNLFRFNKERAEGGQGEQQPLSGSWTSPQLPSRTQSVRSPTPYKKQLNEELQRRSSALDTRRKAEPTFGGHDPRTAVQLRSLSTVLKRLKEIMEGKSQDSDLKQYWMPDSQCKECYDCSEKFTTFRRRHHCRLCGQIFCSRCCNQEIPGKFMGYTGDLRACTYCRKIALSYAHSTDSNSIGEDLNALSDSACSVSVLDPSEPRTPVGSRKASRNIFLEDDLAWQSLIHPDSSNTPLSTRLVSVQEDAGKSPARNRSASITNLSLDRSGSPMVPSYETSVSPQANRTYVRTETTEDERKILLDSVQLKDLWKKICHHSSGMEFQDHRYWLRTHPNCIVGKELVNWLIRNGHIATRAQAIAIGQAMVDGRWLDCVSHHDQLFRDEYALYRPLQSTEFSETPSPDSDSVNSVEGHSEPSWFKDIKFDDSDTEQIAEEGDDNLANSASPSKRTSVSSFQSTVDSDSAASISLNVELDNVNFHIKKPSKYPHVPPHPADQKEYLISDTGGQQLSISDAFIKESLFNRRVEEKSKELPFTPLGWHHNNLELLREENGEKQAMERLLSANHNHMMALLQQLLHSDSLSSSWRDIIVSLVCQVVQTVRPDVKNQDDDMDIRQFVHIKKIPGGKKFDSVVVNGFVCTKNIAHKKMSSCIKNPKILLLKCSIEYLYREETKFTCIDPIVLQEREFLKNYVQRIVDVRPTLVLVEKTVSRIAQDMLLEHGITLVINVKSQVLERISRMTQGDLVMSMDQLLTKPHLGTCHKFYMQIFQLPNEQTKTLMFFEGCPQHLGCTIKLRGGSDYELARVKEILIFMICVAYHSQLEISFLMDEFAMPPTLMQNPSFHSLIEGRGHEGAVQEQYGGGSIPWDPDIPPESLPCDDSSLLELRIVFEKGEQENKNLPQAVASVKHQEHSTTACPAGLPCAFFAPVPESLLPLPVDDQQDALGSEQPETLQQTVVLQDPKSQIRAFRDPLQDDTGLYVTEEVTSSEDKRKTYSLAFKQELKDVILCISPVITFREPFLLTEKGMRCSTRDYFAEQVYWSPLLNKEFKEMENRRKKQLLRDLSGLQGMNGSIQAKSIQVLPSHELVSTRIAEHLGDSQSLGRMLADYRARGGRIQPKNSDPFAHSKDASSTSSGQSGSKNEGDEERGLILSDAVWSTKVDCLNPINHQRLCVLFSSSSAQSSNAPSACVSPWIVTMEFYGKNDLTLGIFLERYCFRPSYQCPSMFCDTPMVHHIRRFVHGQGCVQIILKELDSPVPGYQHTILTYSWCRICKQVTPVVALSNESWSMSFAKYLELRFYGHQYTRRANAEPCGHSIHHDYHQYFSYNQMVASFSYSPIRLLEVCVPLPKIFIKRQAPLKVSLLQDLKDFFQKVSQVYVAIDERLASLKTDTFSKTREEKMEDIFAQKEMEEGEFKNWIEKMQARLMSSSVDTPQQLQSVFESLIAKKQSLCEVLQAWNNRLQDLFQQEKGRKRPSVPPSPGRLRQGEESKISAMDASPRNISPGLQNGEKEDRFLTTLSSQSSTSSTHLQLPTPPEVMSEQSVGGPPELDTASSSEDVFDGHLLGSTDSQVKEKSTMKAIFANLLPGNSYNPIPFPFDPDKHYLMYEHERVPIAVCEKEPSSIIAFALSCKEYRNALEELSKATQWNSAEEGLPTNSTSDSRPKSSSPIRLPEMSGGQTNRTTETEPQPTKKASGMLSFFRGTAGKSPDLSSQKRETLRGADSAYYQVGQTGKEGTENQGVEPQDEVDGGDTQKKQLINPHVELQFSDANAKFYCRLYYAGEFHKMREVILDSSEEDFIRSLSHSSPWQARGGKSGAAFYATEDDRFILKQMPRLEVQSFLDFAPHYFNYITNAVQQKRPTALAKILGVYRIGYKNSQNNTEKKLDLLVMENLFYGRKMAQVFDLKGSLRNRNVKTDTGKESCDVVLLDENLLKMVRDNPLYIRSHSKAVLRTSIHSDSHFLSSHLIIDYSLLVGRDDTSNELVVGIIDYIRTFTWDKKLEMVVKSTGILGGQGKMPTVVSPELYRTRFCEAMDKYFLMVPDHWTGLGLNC
In short: as §1

[13] = biological target: T13, kinases of the scanMAX Kinase assay panel (Homo sapiens, UniProt P35590); conditions: kinase TIE1; 1 uM in DMSO
T13 construct: purchased DiscoverX Co. (contract measurement) scanMAX Kinase assay panel
In short: as §1

[14] = biological target: T14, kinases of the scanMAX Kinase assay panel (Homo sapiens, UniProt P53350); conditions: PLK1; 1 uM
T14 construct: purchased DiscoverX Co. (contract measurement) scanMAX Kinase assay panel
In short: as §1

[15] = kinase RSK4(Kin.Dom.1-N-terminal), read-out: % control, RSK4(Kin.Dom.1-N-terminal)
[16] = kinase RSK4(Kin.Dom.2-C-terminal), read-out: % control, RSK4(Kin.Dom.2-C-terminal)

SMILES	remaining binding at 1 µM [1]	remaining binding at 1 µM [2]	remaining binding at 1 µM [3]	remaining binding at 1 µM [4]	remaining binding at 1 µM [5]	remaining binding at 1 µM [6]	remaining binding at 1 µM [7]	remaining binding at 1 µM [8]	remaining binding at 1 µM [9]	remaining binding at 1 µM [10]	remaining binding at 1 µM [11, 15]	remaining binding at 1 µM [11, 16]	remaining binding at 1 µM [12]	remaining binding at 1 µM [13]	remaining binding at 1 µM [14]
CNc1nc(Nc2ccc(C(=O)N3CCOCC3)cc2OC)nc2[nH]cc(C#N)c12 [Example 1, 2-((2-methoxy-4-(morpholine-4-carbonyl)phenyl)amino)-4-(methylamino)-7H-pyrrolo[2,3-d]pyrimidine-5-carbonitrile]	99%	69%	82%	88%	99%	59%	62%	97%	85%	89%	79%	77%	73%	96%	14%
CC1(Nc2nc(Nc3cnn([C@H]4CCN(C5COC5)C[C@@H]4F)c3Cl)nc3[nH]cc(C#N)c23)CC1 [Example 52, 2-((5-chloro-1-((3S,4S)-3-fluoro-1-(oxetane-3-yl)piperidine-4-yl)-1H-pyrazole-4-yl)amino)((1-methylcyclopropyl)amino)-7H-pyrrolo[2,3-d]pyrimidine-5-carbonitrile]	33%	99%	0.9%	42%	0.85%	24%	2.6%	79%	0.05%	30%	7.1%	75%	65%	19%	100%
CCNc1nc(Nc2ccc(C(=O)N3CCC(N4CCOCC4)CC3)cc2OC)nc2[nH]cc(C(F)(F)F)c12 [Example 104, (4-((4-(ethylamino)-5-(trifluoromethyl)-7H-pyrrolo[2,3-d]pyrimidine-2-yl)amino)-3-methoxyphenyl)(4-morpholinopiperidine-1-yl)methanone]	85%	100%	31%	100%	87%	73%	100%	100%	92%	100%	95%	97%	100%	100%	65%
